Reference: BigSolDB 2.1

CO/N=C(\C(=O)N[C@@H]1C(=O)N2C(C(=O)O)=C(CSc3nnnn3C)CS[C@H]12)c1csc(N)n1.CO/N=C(\C(=O)N[C@@H]1C(=O)N2C(C(=O)O)=C(CSc3nnnn3C)CS[C@H]12)c1csc(N)n1.Cl
solubility (mole fraction)
Conditions	283.15 K	288.15 K	293.15 K	298.15 K	303.15 K	308.15 K	313.15 K
in ethanol	2.61e-05	2.83e-05	3.03e-05	3.17e-05	3.8e-05	4.01e-05	4.68e-05
in methanol	0.000186	0.000196	0.000213	0.000235	0.000253	0.000275	0.000303
in water	3.26e-05	3.59e-05	4.23e-05	4.76e-05	5.29e-05	5.88e-05	6.65e-05
